From PMC5640650, “NatD promotes lung cancer progression by preventing histone H4 serine phosphorylation to activate Slug expression” (Nature Communications, 2017)

Key:
[1] = tested on: A549 cells; experiment: Tail vein xenograft in SCID mice, A549 cells; assay type: in vivo, human
Excerpt: Fig. 3 NatD promotes lung cancer cell invasion in a xenograft mouse model. a (left) Representative bioluminescent (BLI) images acquired at the indicated time points after intravenous injection of SCID mice with Scr or NatD-KD A549 cells. NatD-KD2 cells were used because the KD2 shRNA produced a better knockdown effect. Pseudocolor heat-maps indicate intensity of bioluminescence from low (blue) to high (red) (D, day). (right) Normalized BLI signals of lung tumors of corresponding mice (n = 5 for each group) recorded at the indicated time points. Results are shown as mean ± s.d. from five mice. […] (right) Quantification of total lung bioluminescence from SCID mice as in (b) (n = 5 for each group). […]
All animal care and handling procedures were performed in accordance with the National Institutes of Health Guide for the Care and Use of Laboratory Animals, and were approved by the Institutional Review Board of Nanjing University (Nanjing, China). […] Lung nodules and progression were monitored and quantified using the bioluminescence system (Caliper IVIS Lumina XR) or by counting under a dissecting microscope. […] Mice were killed at day 28 or day 30 to collect lungs, and lung nodules in serial sections were quantified microscopically. […] Lung nodules and progression were monitored and quantified using the bioluminescence system (Caliper IVIS Lumina XR). […]

[2] = tested on: CK2α; experiment: CK2α localization by confocal immunofluorescence / western blot, H1299 cells; assay type: cell-based, human; conditions: NatD knockdown H1299 cells
Excerpt: Fig. 7 Downregulation of Nt-acetylation of histone H4 facilitates nuclear accumulation of CK2α and its binding to histone H4 in lung cancer cells. a Representative confocal scanning images of CK2α localization in Scr and H1299 cells (left panel). The staining intensity of CK2α was quantified by software ImageJ from NIH (right diagram). Scale bars, 5 μm. […] Equal peptide biotinylated on C terminus is shown by dot blot analysis with streptavidin (middle panel). […] IgG served as a negative control. Results are shown as mean ± s.d. from three independent experiments; two-tailed Student’s t-test, **P < 0.01 compared with the indicated control. g Quantitative real-time PCR analysis of mRNA levels of CK2α and Slug normalized to GAPDH in Scr and NatD-KD H1299 cells in the absence or presence of siRNA to CK2α. NC, siRNA mimics negative control. […]
For immunofluorescence assays, cells were fixed with 4% formaldehyde for 5 min at room temperature. […] Sub-cellular distribution of CK2α was analyzed by confocal scanning microscopy (Olympus FV10i). The relative intracellular distribution of CK2α in each experimental sample was calculated as the nuclear to total (cytoplasmic + nuclear) ratio by measuring the intensity of the signals in each cellular compartment with the aid of ImageJ software (NIH). […]

NatD-KD2: Human NatD shRNA KD2: 5′-GGTTGAATGTCTCCATTGA-3′, lentiviral (shRNA lentiviral)
lung cancer growth signals (photon radiance) ([1]; BLI days 1-28, n = 5, vs Scr): significantly reduced | number of tumor nodules ([1]; day 28, n = 5, relative to Scr): decreased threefold | CK2α in the cytoplasm (western blot) [2]: no detectable levels | CK2α localized in the nucleus ([2]; more than 30 cells (Scr: about 70%)): ~100%
